In one series the test system is Vero E6 cells. In words: Cytotoxicity, neutral red uptake assay in Vero E6 cells.
Experiment in series [1]: as above
The following applies: African green monkey.

The target in the next series is SARS-CoV M^pro (Severe acute respiratory syndrome coronavirus, UniProt P0C6X7). In words: biochemical. The following applies: IC50 against SARS-CoV M^pro.
Another series has as its target MERS-CoV M^pro (Middle East respiratory syndrome-related coronavirus, UniProt K9N7C7). Type of series: biochemical.
The target in another series is EV-A71 3C^pro (Human enterovirus 71, UniProt Q66478). In words: FRET-based enzymatic assay, EV-A71 3C^pro. The format is biochemical.
The target in the next series is EV-D68 3C^pro (Human enterovirus D68, UniProt Q68T42). In words: FRET-based enzymatic assay, EV-D68 3C^pro. Type of series: biochemical.
For the next series, the target named is EV-A71 2A^pro (Human enterovirus 71, UniProt Q66478). Kind of series: FRET-based enzymatic assay, EV-A71 2A^pro. The format is biochemical.
The target in a further series is EV-D68 2A^pro (Human enterovirus D68, UniProt Q68T42). Kind of series: FRET-based enzymatic assay, EV-D68 2A^pro. The format is biochemical.
The target of a further series is HCoV-OC43 M^pro (Human coronavirus OC43, UniProt P0C6X6). In words: FRET-based enzymatic assay, HCoV-OC43 M^pro.
In the next series the test system is Calu-3 cells. In words: Cytotoxicity in Calu-3 cells.

EV-A71 2A^pro, sequence (Q66478 863-1012 limits assumed): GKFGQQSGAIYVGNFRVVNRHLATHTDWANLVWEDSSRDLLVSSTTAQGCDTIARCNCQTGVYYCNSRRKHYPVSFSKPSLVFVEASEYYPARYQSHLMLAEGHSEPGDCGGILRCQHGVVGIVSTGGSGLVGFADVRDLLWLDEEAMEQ
EV-A71 3C^pro, sequence (Q66478 1549-1731 limits assumed): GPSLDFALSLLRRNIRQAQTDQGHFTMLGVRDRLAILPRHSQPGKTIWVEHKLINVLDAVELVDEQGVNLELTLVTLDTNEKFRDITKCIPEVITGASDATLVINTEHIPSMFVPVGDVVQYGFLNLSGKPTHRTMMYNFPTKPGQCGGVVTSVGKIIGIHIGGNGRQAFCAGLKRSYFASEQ
EV-D68 3C^pro, sequence (Q68T42 1549-1731 limits assumed): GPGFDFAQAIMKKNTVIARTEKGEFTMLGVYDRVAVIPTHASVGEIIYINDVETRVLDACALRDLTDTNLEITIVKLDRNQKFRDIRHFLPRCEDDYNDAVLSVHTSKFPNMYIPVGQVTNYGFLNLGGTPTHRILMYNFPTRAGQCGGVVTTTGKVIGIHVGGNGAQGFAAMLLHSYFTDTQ
EV-D68 2A^pro, sequence (Q68T42 862-1008 limits assumed): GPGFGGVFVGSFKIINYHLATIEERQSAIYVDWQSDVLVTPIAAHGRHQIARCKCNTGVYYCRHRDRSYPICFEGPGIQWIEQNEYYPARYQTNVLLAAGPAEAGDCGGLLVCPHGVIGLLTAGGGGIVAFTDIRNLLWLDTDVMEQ
HCoV-OC43 M^pro, sequence (P0C6X6 3247-3549 limits assumed): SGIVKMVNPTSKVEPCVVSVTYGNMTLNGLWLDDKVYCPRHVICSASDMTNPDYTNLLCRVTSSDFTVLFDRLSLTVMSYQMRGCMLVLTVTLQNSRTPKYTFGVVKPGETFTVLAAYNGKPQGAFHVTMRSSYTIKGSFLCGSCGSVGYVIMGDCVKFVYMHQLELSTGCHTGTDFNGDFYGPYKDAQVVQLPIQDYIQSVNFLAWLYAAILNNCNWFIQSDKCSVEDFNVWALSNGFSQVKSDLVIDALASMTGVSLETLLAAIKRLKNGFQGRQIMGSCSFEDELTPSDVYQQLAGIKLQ
MERS-CoV M^pro, sequence (K9N7C7 3248-3553 limits assumed): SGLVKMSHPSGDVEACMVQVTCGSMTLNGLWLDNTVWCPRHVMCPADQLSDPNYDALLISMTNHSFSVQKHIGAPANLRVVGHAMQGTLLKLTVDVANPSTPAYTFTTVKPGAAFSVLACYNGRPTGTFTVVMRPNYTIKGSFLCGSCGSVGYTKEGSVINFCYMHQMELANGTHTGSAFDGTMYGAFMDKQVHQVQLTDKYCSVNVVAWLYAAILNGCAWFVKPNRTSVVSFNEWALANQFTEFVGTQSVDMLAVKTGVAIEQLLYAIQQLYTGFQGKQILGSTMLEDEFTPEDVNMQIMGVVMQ

Regarding `CC(C)(C)c1ccc(N(C(=O)c2ccco2)C(C(=O)NC2CC2)c2cccnc2)cc1` (centres unmarked) [Compound 3, 2-[N-(4-tert-butylphenyl)-1-(furan-2-yl)formamido]-N-cyclopropyl-2-(pyridin-3-yl)acetamide], in the series on Vero E6 cells, the “CC50 in Vero E6 cells” value is listed as “moderate to high cellular cytotoxicity”.
On to `CC(C)(C)c1ccc(N(C(=O)c2ccco2)C(C(=O)NC2CCCC2)c2cccnc2)cc1` (centres unmarked) [Compound 5, 2-[N-(4-tert-butylphenyl)-1-(furan-2-yl)formamido]-N-cyclopentyl-2-(pyridin-3-yl)acetamide], for which, in series [1], the CC50 at 5 days was more than 100 µM.
In the case of `CC(C)(C)c1ccc(N(C(=O)c2ccco2)C(C(=O)NC2CCCCC2)c2cccnc2)cc1` (centres unmarked) [Compound 6, 2-[N-(4-tert-butylphenyl)-1-(furan-2-yl)formamido]-N-cyclohexyl-2-(pyridin-3-yl)acetamide], in the series on Vero E6 cells, the “CC50 in Vero E6 cells” value is “moderate to high cellular cytotoxicity”.
Still for that read-out and setting: the result for `C[C@H](NC(=O)C(c1cccnc1)N(C(=O)c1ccco1)c1ccc([Si](C)(C)C)cc1)c1ccccc1` (stereo partly drawn) [Compound 14, 2-[1-(furan-2-yl)-N-[4-(trimethylsilyl)phenyl]formamido]-N-[(1S)-1-phenylethyl]-2-(pyridinyl)acetamide] reads “moderate to high cellular cytotoxicity”.
The same measure, in the same setting: the result for `C[C@H](NC(=O)C(c1cccnc1)N(C(=O)c1ccco1)c1ccc(C2CCCCC2)cc1)c1ccccc1` (stereo partly drawn) [Compound 17, 2-[N-(4-cyclohexylphenyl)-1-(furan-2-yl)formamido]-N-[(1S)-1-phenylethyl]-2-(pyridin-3-yl)acetamide] reads “moderate to high cellular cytotoxicity”; that for `C[C@H](NC(=O)C(c1cccnc1)N(C(=O)c1ccco1)c1ccc(-c2ccco2)cc1)c1ccccc1` (stereo partly drawn) [Compound 18, 2-[1-(furan-2-yl)-N-[4-(furan-2-yl)phenyl]formamido]-N-[(1S)-1-phenylethyl]-2-(pyridin-3-yl)acetamide], “moderate to high cellular cytotoxicity”; that for `C[C@H](NC(=O)C(c1cccnc1)N(C(=O)c1ccco1)c1ccc(-c2cccs2)cc1)c1ccccc1` (stereo partly drawn) [Compound 19, 2-[1-(furan-2-yl)-N-[4-(thiophen-2-yl)phenyl]formamido]-N-[(1S)-1-phenylethyl]-2-(pyridin-3-yl)acetamide], “moderate to high cellular cytotoxicity”.
Regarding `C[C@H](NC(=O)[C@@H](c1cccnc1)N(C(=O)c1ccco1)c1ccc(-c2ccccc2)cc1)c1ccccc1` [Compound 23R, (2R)-2-(N-{[1,1’-biphenyl]-4-yl}-1-(furan-2-yl)formamido)-N-[(1S)-1-phenylethyl]-2-(pyridin-3-yl)acetamide], the IC50 against SARS-CoV M^pro was not above 270 nM. Also, on MERS-CoV M^pro, the “IC50 against MERS-CoV M^pro” value is “not other viral proteases tested”. Moreover, at EV-A71 3C^pro (FRET-based enzymatic assay), the “IC50 against EV-A71 3C^pro” value is “not other viral proteases tested”. Further, the “IC50 against EV-D68 3C^pro” value at EV-D68 3C^pro (FRET-based enzymatic assay) is “not other viral proteases tested”. In addition, the “IC50 against EV-A71 2A^pro” value on EV-A71 2A^pro (FRET-based enzymatic assay) was “not other viral proteases tested”. The “IC50 against EV-D68 2A^pro” value on EV-D68 2A^pro (FRET-based enzymatic assay) was “not other viral proteases tested”. Further, the “IC50 against HCoV-OC43 M^pro” value against HCoV-OC43 M^pro was “not other viral proteases tested”. Also, the “cytotoxicity in Calu-3 cells (not cytotoxic at up to)” value with Calu-3 cells was more than 100 µM. The “cytotoxicity to Vero E6 cells (not cytotoxic at up to)” value in the series on Vero E6 cells was more than 100 µM.
For `C[C@H](NC(=O)C(c1cccnc1)N(C(=O)c1cnco1)c1ccc(-c2ccccc2)cc1)c1ccccc1` (stereo partly drawn) [Compound 26, 2-(N-{[1,1’-biphenyl]-4-yl}-1-(1,3-oxazol-5-yl)formamido)-N-[(1S)-1-phenylethyl]-2-(pyridin-3-yl)acetamide], the “CC50 in Vero E6 cells” value in the series on Vero E6 cells was “moderate to high cellular cytotoxicity”.
Consider `O=C(NC1CCCCC1)C(c1cccnc1)N(C(=O)c1ccco1)c1ccc(-c2ccccc2)cc1` (centres unmarked) [Compound 34, 2-(N-{[1,1’-biphenyl]-4-yl}-1-(furan-2-yl)formamido)-N-cyclohexyl-2-(pyridin-3-yl)acetamide], for which the “CC50 in Vero E6 cells” value in the series on Vero E6 cells is “moderate to high cellular cytotoxicity”.
Still for that read-out and setting: the result for `C[C@H](NC(=O)C(c1cccnc1)N(C(=O)c1ccno1)c1ccc(C2CCCCC2)cc1)c1ccccc1` (stereo partly drawn) [Compound 36, 2-[N-(4-cyclohexylphenyl)-1-(1,2-oxazol-5-yl)formamido]-N-[(1S)-1-phenylethyl]-2-(pyridin-3-yl)acetamide] reads “moderate to high cellular cytotoxicity”.
In the case of `CC(C)C[C@H](NC(=O)OCc1ccccc1)C(=O)N[C@@H](C[C@@H]1CCNC1=O)C(O)S(=O)(=O)O` (some centres unmarked) [GC376, reference compound], the IC50 on EV-A71 3C^pro was not above 160 nM; against EV-D68 3C^pro, not above 160 nM; on EV-A71 2A^pro, more than 50 µM; on EV-D68 2A^pro, more than 50 µM.

One may read the CC50 as the concentration giving 50% cytotoxicity. As a reminder, the IC50 is the concentration at which inhibition is half-maximal.

The values above are taken from publication PMC8536799 (Journal of medicinal chemistry, 2021).
